For test [1], the system named is EEEV-nLuc replicon. The following applies: read-out: IC50 (EEEV-nLuc replicon). In general terms: A replicon is a self-replicating genome or part of one, used to study replication in cells.
The test system of test [2] is 20 human cysteine proteases and three viral cysteine proteases.
Test [3] has as its system EEEV-nLuc replicon. Briefly: microbe, parasite or virus in culture. The following applies: Eastern equine encephalitis virus, Fibroblast, in Homo sapiens, 24 h, read-out: IC50 (EEEV-nLuc replicon).
The target in the next test is CHIKV nsP2pro (Chikungunya virus, UniProt F2YI08). The following applies: read-out: IC50 (CHIKV nsP2pro inhibition); cited from earlier work.

Read-outs that look alike come from different tables or passages of the source.

The source of these data is paper PMC11873239, “A covalent chemical probe for Chikungunya nsP2 cysteine protease with antialphaviral activity and proteome-wide selectivity” (Scientific Reports, 2025).

As for `CCOc1ccccc1-c1cc(C(=O)NC/C=C/S(C)(=O)=O)on1` [Compound 3, (E)−3-(2-ethoxyphenyl)-N-(3-(methylsulfonyl)allyl)isoxazole-5-carboxamide], the IC50 in the test with EEEV-nLuc replicon [1] and in the test on EEEV-nLuc replicon [3] was 930 nM each time. The “inhibition across cysteine protease panel” value in test [2] is given as “no significant inhibition”.

For the molecule `CCOc1ccccc1-c1cc2n(n1)C(CS(C)(=O)=O)CNC2=O` (stereo not shown) [Compound 2], the IC50 (as a rule, the concentration that gives 50% inhibition) at CHIKV nsP2pro is over 40000 nM.
